Columns and labels:
Test in all cases: Screening of fungi for enzyme activity with 4-methylumbelliferone-labelled substrates
Format in all cases: cell-based
[1] = system: Aureobasidium pullulans (QM 3092); conditions: substrate 10 μM, 25° C., pH 5; for Enzyme activity: amount of released 4-methylumbelliferone during 5 hours of incubation: Aureobasidium pulluians (QM 3092), vegetable juice medium; for Enzyme activity: amount of released 4-methylumbelliferone: Aureobasidium pullulans (QM 3092), mineral medium
[2] = system: Paecilomyces farinosus (AGM 5); conditions: substrate 10 μM, 25° C., pH 5; for Enzyme activity: amount of released 4-methylumbelliferone: mineral medium; for Enzyme activity: amount of released 4-methylumbelliferone during 5 hours of incubation: vegetable juice medium
[3] = system: Cladosporium herbarum (AGM 8); conditions: substrate 10 μM, 25° C., pH 5; for Enzyme activity: amount of released 4-methylumbelliferone: mineral medium; for Enzyme activity: amount of released 4-methylumbelliferone during 5 hours of incubation: vegetable juice medium
[4] = system: Penicillium commune (IBT 13713); conditions: substrate 10 μM, 25° C., pH 5; for Enzyme activity: amount of released 4-methylumbelliferone: mineral medium; for Enzyme activity: amount of released 4-methylumbelliferone during 5 hours of incubation: vegetable juice medium
[5] = system: Penicillium solitum (IBT 13771); conditions: substrate 10 μM, 25° C., pH 5; for Enzyme activity: amount of released 4-methylumbelliferone: mineral medium; for Enzyme activity: amount of released 4-methylumbelliferone during 5 hours of incubation: vegetable juice medium
[6] = system: Aspergillus oryzae (AGM 11); conditions: substrate 10 μM, 25° C., pH 5; for Enzyme activity: amount of released 4-methylumbelliferone: mineral medium; for Enzyme activity: amount of released 4-methylumbelliferone during 5 hours of incubation: vegetable juice medium
[7] = system: Mucor racemosus (AAS 310); conditions: substrate 10 μM, 25° C., pH 5; for Enzyme activity: amount of released 4-methylumbelliferone: mineral medium; for Enzyme activity: amount of released 4-methylumbelliferone during 5 hours of incubation: vegetable juice medium
[8] = system: Ascobolus crenulatus (AAS 1); conditions: substrate 10 μM, 25° C., pH 5; for Enzyme activity: amount of released 4-methylumbelliferone: mineral medium; for Enzyme activity: amount of released 4-methylumbelliferone during 5 hours of incubation: vegetable juice medium
[9] = system: Trametes versicolor (AGM 24); conditions: substrate 10 μM, 25° C., pH 5; for Enzyme activity: amount of released 4-methylumbelliferone: mineral medium; for Enzyme activity: amount of released 4-methylumbelliferone during 5 hours of incubation: vegetable juice medium
[10] = system: Rhizomucor pusillus (AAS 300); conditions: substrate 10 μM, 25° C., pH 5; for Enzyme activity: amount of released 4-methylumbelliferone: mineral medium; for Enzyme activity: amount of released 4-methylumbelliferone during 5 hours of incubation: vegetable juice medium
[11] = system: Schizophyllum commune (AGM 25); conditions: substrate 10 μM, 25° C., pH 5; for Enzyme activity: amount of released 4-methylumbelliferone: mineral medium; for Enzyme activity: amount of released 4-methylumbelliferone during 5 hours of incubation: vegetable juice medium
[12] = system: Sodaria fimicola (AAS 17); conditions: substrate 10 μM, 25° C., pH 5; for Enzyme activity: amount of released 4-methylumbelliferone: mineral medium; for Enzyme activity: amount of released 4-methylumbelliferone during 5 hours of incubation: vegetable juice medium
Eurotium sp. (AAS 36) = conditions: substrate 10 μM, 25° C., pH 5; for Enzyme activity: amount of released 4-methylumbelliferone: mineral medium; for Enzyme activity: amount of released 4-methylumbelliferone during 5 hours of incubation: vegetable juice medium
[13] = system: Aspergillus versicolor (IBT 13738); conditions: substrate 10 μM, 25° C., pH 5; for Enzyme activity: amount of released 4-methylumbelliferone: mineral medium; for Enzyme activity: amount of released 4-methylumbelliferone during 5 hours of incubation: vegetable juice medium

SMILES	Enzyme activity: amount of released 4-methylumbelliferone during 5 hours of incubation [1]	Enzyme activity: amount of released 4-methylumbelliferone [1]	Enzyme activity: amount of released 4-methylumbelliferone [2]	Enzyme activity: amount of released 4-methylumbelliferone during 5 hours of incubation [2]	Enzyme activity: amount of released 4-methylumbelliferone [3]	Enzyme activity: amount of released 4-methylumbelliferone during 5 hours of incubation [3]	Enzyme activity: amount of released 4-methylumbelliferone [4]	Enzyme activity: amount of released 4-methylumbelliferone during 5 hours of incubation [4]	Enzyme activity: amount of released 4-methylumbelliferone [5]	Enzyme activity: amount of released 4-methylumbelliferone during 5 hours of incubation [5]	Enzyme activity: amount of released 4-methylumbelliferone [6]	Enzyme activity: amount of released 4-methylumbelliferone during 5 hours of incubation [6]	Enzyme activity: amount of released 4-methylumbelliferone [7]	Enzyme activity: amount of released 4-methylumbelliferone during 5 hours of incubation [7]	Enzyme activity: amount of released 4-methylumbelliferone [8]	Enzyme activity: amount of released 4-methylumbelliferone during 5 hours of incubation [8]	Enzyme activity: amount of released 4-methylumbelliferone [9]	Enzyme activity: amount of released 4-methylumbelliferone during 5 hours of incubation [9]	Enzyme activity: amount of released 4-methylumbelliferone [10]	Enzyme activity: amount of released 4-methylumbelliferone during 5 hours of incubation [10]	also measured
CC(=O)N[C@H]1[C@H](Oc2ccc3c(C)cc(=O)oc3c2)O[C@H](COS(=O)(=O)O)[C@@H](O)[C@@H]1O [substrate 1, 4-methylumbelliferyl 7-6(sulfo-2-acetamido-2-deoxy-β-D-glucopyranoside)]	0 µmol	0 µmol	0 µmol	0 µmol	0 µmol	0 µmol	0 µmol	0 µmol	0 µmol	0 µmol	0 µmol	0 µmol	* (0.4 ≦ * < 1)	* (0.4 ≦ * < 1)	0 µmol	0 µmol	0 µmol	0 µmol	0 µmol	0 µmol	Enzyme activity: amount of released 4-methylumbelliferone [11]: * (0.4 ≦ * < 1); Enzyme activity: amount of released 4-methylumbelliferone during 5 hours of incubation [11]: 0 µmol; Enzyme activity: amount of released 4-methylumbelliferone [12]: 0 µmol; Enzyme activity: amount of released 4-methylumbelliferone during 5 hours of incubation [12]: 0 µmol; Enzyme activity: amount of released 4-methylumbelliferone (Eurotium sp. (AAS 36)): 0 µmol; Enzyme activity: amount of released 4-methylumbelliferone during 5 hours of incubation (Eurotium sp. (AAS 36)): 0 µmol; Enzyme activity: amount of released 4-methylumbelliferone [13]: 0 µmol; Enzyme activity: amount of released 4-methylumbelliferone during 5 hours of incubation [13]: 0 µmol
CC(=O)N[C@H]1[C@@H](Oc2ccc3c(C)cc(=O)oc3c2)O[C@H](CO)[C@@H](O)[C@@H]1O [substrate 2, 4-methylumbelliferyl N-acetyl-α-D-glucosaminide]	0 µmol	0 µmol	0 µmol	0 µmol	0 µmol	0 µmol	0 µmol	0 µmol	0 µmol	0 µmol	0 µmol	0 µmol	0 µmol	0 µmol	0 µmol	0 µmol	0 µmol	0 µmol	0 µmol	0 µmol	Enzyme activity: amount of released 4-methylumbelliferone [11]: 0 µmol; Enzyme activity: amount of released 4-methylumbelliferone during 5 hours of incubation [11]: 0 µmol; Enzyme activity: amount of released 4-methylumbelliferone [12]: 0 µmol; Enzyme activity: amount of released 4-methylumbelliferone during 5 hours of incubation [12]: 0 µmol; Enzyme activity: amount of released 4-methylumbelliferone (Eurotium sp. (AAS 36)): 0 µmol; Enzyme activity: amount of released 4-methylumbelliferone during 5 hours of incubation (Eurotium sp. (AAS 36)): 0 µmol; Enzyme activity: amount of released 4-methylumbelliferone [13]: 0 µmol; Enzyme activity: amount of released 4-methylumbelliferone during 5 hours of incubation [13]: 0 µmol
Cc1cc(=O)oc2cc(OC3OC(CO)C(O)C(O)C3O)ccc12 [substrate 5, 4-methylumbelliferyl α-D-mannopyranoside]	** (1 ≦ ** 2)	0 µmol	0 µmol	0 µmol	0 µmol	0 µmol	0 µmol	* (0.4 ≦ * < 1)	0 µmol	0 µmol	0 µmol	*** (2 ≦ ***)	0 µmol	* (0.4 ≦ * < 1)	0 µmol	0 µmol	0 µmol	* (0.4 ≦ * < 1)	0 µmol	*** (2 ≦ ***)	Enzyme activity: amount of released 4-methylumbelliferone [11]: 0 µmol; Enzyme activity: amount of released 4-methylumbelliferone during 5 hours of incubation [11]: ** (1 ≦ ** 2); Enzyme activity: amount of released 4-methylumbelliferone [12]: 0 µmol; Enzyme activity: amount of released 4-methylumbelliferone during 5 hours of incubation [12]: *** (2 ≦ ***); Enzyme activity: amount of released 4-methylumbelliferone (Eurotium sp. (AAS 36)): 0 µmol; Enzyme activity: amount of released 4-methylumbelliferone during 5 hours of incubation (Eurotium sp. (AAS 36)): * (0.4 ≦ * < 1); Enzyme activity: amount of released 4-methylumbelliferone [13]: 0 µmol; Enzyme activity: amount of released 4-methylumbelliferone during 5 hours of incubation [13]: 0 µmol
Cc1cc(=O)oc2cc(O[C@@H]3O[C@H](CO)[C@@H](O)[C@H](O)[C@@H]3O)ccc12 [substrate 6, 4-methylumbelliferyl β-D-mannopyranoside]	** (1 ≦ ** 2)	0 µmol	0 µmol	0 µmol	0 µmol	0 µmol	0 µmol	* (0.4 ≦ * < 1)	0 µmol	0 µmol	0 µmol	*** (2 ≦ ***)	0 µmol	** (1 ≦ ** 2)	0 µmol	* (0.4 ≦ * < 1)	0 µmol	0 µmol	0 µmol	0 µmol	Enzyme activity: amount of released 4-methylumbelliferone [11]: 0 µmol; Enzyme activity: amount of released 4-methylumbelliferone during 5 hours of incubation [11]: *** (2 ≦ ***); Enzyme activity: amount of released 4-methylumbelliferone [12]: 0 µmol; Enzyme activity: amount of released 4-methylumbelliferone during 5 hours of incubation [12]: *** (2 ≦ ***); Enzyme activity: amount of released 4-methylumbelliferone (Eurotium sp. (AAS 36)): 0 µmol; Enzyme activity: amount of released 4-methylumbelliferone during 5 hours of incubation (Eurotium sp. (AAS 36)): 0 µmol; Enzyme activity: amount of released 4-methylumbelliferone [13]: 0 µmol; Enzyme activity: amount of released 4-methylumbelliferone during 5 hours of incubation [13]: 0 µmol

Source: patent publication US6372446B1, “Method of selectively determining a fungal biomass” (Mycometer ApS, priority 1997, dated 2002)
